These results are taken from ChEMBL document CHEMBL1201862, “PubChem BioAssay data set” (2004).

Active and inactive are the calls of the source.

One assay concerns the target T1, Aminopeptidase N (Plasmodium falciparum FcB1/Columbia, UniProt O96935).
T1 sequence (O96935 whole entry): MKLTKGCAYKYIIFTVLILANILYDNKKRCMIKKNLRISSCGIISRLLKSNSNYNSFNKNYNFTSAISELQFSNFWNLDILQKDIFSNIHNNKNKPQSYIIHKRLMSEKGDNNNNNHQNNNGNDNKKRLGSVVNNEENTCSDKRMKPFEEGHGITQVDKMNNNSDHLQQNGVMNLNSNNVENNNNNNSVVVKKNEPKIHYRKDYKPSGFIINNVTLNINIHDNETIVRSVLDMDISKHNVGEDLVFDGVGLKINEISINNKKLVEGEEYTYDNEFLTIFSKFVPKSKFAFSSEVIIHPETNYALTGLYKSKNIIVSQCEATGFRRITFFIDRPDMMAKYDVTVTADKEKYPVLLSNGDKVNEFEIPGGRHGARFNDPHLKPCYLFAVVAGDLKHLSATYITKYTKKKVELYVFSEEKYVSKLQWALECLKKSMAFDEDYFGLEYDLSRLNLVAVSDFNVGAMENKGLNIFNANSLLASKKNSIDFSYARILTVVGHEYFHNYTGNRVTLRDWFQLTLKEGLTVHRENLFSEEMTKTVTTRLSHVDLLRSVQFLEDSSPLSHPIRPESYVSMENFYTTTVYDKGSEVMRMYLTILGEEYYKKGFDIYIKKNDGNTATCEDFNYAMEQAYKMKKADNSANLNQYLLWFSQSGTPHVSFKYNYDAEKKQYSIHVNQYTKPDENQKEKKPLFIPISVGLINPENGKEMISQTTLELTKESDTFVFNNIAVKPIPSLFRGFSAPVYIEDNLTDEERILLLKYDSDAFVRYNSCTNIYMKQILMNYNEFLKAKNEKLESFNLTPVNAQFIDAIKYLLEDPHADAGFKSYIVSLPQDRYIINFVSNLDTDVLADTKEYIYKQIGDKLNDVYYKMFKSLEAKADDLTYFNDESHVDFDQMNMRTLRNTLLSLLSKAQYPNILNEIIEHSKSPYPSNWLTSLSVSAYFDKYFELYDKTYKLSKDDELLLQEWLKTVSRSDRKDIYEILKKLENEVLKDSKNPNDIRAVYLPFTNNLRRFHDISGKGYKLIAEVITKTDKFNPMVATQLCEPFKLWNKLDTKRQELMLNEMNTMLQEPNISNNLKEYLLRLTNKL
Put plainly: malaria alanyl aminopeptidase activity blockers – biochemical, fluorogenic H-Leu-NHMec substrate, 1536-well (AID 1445). Also on record: species or system Plasmodium falciparum 3D7, 3D7.

Another assay deals with T2, Leucine aminopeptidase (Plasmodium falciparum 3D7, UniProt Q8IL11).
T2 sequence (Q8IL11 whole entry): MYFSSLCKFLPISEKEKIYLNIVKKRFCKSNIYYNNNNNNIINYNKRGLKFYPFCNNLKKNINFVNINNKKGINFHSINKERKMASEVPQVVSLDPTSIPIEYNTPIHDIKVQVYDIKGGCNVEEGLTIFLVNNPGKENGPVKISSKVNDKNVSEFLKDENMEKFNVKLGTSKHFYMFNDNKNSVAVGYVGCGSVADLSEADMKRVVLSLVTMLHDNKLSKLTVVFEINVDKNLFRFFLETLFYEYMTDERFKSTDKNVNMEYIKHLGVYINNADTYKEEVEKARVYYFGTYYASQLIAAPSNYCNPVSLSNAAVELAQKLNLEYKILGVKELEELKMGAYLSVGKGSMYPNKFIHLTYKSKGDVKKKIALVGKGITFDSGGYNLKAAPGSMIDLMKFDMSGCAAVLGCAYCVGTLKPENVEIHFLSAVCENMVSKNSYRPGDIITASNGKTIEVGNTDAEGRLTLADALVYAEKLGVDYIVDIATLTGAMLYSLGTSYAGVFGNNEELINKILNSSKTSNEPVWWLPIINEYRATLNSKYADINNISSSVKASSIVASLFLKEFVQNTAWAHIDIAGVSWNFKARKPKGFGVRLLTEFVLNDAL
Put plainly: P. falciparum M17LAP inhibitors, primary screen, biochemical, fluorogenic H-Leu-NHMec substrate, 1536-well (AID 1619). It counts as functional.

Assay [1] deals with Peroxisome proliferator-activated receptor gamma/Nuclear receptor coactivator 2 (Homo sapiens, UniProt P37231). It counts as functional.
For assay [2], the target named is Peroxisome proliferator-activated receptor gamma/Nuclear receptor coactivator 3 (Homo sapiens, UniProt P37231). It counts as functional.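 Note: agonist potency for raising coactivator recruitment to the receptor.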
Peroxisome proliferator-activated receptor gamma/Nuclear receptor coactivator 3, sequence (P37231 whole entry): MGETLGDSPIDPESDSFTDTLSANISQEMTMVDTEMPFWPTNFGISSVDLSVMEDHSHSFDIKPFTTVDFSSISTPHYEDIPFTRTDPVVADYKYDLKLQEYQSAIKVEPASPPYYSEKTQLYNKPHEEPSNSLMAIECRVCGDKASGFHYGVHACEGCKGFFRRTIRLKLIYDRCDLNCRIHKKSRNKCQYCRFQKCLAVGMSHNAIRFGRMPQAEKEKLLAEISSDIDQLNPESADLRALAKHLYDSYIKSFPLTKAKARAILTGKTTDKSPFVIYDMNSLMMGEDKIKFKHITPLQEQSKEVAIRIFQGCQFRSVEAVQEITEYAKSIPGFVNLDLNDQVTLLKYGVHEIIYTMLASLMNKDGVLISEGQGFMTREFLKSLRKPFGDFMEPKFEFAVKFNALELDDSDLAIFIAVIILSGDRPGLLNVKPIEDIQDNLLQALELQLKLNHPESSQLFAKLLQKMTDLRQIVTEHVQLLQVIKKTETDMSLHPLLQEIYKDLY
Peroxisome proliferator-activated receptor gamma/Nuclear receptor coactivator 3, sequence (Q9Y6Q9 whole entry, further chain): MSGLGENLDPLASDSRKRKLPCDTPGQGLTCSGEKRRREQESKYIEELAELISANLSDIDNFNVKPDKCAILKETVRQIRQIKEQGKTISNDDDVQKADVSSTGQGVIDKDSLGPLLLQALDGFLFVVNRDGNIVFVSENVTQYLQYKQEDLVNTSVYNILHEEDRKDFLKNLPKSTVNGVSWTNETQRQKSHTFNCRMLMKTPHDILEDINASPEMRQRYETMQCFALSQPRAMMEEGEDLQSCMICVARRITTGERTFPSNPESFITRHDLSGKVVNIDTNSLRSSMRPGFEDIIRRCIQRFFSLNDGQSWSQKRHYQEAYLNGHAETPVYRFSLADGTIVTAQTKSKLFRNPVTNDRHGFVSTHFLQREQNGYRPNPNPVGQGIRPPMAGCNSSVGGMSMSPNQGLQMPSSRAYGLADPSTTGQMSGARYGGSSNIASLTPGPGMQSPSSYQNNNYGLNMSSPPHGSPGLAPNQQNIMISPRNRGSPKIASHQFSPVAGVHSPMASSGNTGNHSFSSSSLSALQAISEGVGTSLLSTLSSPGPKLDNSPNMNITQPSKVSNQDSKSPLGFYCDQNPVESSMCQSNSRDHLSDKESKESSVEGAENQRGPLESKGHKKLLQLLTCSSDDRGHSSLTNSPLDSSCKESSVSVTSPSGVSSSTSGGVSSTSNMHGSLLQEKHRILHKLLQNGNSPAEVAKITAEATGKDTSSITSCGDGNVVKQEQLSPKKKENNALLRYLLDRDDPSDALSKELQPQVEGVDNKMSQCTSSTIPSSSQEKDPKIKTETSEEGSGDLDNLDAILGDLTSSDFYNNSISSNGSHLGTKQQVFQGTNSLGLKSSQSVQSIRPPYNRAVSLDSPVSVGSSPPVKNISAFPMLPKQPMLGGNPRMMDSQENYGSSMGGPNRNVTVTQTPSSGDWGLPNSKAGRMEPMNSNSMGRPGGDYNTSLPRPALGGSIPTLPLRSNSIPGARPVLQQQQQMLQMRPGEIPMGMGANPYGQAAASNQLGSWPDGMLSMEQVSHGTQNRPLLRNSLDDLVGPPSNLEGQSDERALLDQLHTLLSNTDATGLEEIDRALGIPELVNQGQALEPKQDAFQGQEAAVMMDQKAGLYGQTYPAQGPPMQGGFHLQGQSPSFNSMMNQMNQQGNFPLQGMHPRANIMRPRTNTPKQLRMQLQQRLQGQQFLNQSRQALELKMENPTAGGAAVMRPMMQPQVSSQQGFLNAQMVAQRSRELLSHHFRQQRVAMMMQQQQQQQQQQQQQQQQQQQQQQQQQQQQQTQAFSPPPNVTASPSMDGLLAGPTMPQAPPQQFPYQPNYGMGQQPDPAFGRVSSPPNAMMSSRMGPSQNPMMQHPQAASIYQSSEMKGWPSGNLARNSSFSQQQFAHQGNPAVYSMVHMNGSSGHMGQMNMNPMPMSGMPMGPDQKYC
In assay [3] the target is Peroxisome proliferator-activated receptor gamma/Nuclear receptor coactivator 1 (Homo sapiens, UniProt P37231). It counts as functional.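 Note: agonist potency as compounds enhance coactivator SRC-1 recruitment to PPARgamma.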
Peroxisome proliferator-activated receptor gamma/Nuclear receptor coactivator 1, sequence (P37231 whole entry): as the sequence (P37231 whole entry) above
Peroxisome proliferator-activated receptor gamma/Nuclear receptor coactivator 1, sequence (Q15788 whole entry, further chain): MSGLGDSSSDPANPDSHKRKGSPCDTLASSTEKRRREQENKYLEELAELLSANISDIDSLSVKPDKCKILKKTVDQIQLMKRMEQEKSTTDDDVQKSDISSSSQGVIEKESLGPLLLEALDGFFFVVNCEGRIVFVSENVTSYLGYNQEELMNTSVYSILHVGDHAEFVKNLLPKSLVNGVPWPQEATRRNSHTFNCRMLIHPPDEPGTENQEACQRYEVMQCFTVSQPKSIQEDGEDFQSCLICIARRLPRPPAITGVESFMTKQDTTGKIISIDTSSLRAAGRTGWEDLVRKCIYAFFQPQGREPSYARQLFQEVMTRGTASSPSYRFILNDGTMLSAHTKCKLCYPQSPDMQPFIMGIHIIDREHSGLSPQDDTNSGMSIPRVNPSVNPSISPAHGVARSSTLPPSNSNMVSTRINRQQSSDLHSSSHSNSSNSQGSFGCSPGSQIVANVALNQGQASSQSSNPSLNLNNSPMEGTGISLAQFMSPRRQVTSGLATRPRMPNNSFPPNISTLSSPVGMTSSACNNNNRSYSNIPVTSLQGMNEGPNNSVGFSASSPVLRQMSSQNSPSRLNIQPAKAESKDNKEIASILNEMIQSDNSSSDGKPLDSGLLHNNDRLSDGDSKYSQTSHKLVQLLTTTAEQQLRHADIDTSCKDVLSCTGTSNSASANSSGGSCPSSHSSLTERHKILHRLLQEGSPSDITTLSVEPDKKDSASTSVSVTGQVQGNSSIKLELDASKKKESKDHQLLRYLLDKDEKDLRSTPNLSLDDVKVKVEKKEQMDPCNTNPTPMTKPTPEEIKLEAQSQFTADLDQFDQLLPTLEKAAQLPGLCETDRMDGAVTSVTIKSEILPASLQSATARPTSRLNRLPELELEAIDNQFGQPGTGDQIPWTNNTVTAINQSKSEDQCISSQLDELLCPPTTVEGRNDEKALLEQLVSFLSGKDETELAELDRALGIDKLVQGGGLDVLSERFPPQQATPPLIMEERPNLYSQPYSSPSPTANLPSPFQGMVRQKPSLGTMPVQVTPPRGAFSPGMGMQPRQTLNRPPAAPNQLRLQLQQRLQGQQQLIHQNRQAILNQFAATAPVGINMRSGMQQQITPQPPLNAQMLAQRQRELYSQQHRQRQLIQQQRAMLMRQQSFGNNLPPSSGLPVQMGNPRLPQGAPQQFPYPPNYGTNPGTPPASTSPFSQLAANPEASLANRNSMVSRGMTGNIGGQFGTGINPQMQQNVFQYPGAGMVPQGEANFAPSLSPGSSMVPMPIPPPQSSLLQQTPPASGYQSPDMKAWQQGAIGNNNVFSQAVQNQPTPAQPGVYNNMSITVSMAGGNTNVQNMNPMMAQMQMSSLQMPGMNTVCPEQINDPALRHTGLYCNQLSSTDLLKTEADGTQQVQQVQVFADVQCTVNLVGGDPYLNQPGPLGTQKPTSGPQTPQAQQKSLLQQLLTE
In the next assay the target is Large T antigen (Simian virus 40, UniProt P03070). It counts as functional, Betapolyomavirus macacae.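 Note: Confirmatory-stage PubChem screen for compounds that inhibit SV40 T antigen.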
Large T antigen, sequence (P03070 whole entry): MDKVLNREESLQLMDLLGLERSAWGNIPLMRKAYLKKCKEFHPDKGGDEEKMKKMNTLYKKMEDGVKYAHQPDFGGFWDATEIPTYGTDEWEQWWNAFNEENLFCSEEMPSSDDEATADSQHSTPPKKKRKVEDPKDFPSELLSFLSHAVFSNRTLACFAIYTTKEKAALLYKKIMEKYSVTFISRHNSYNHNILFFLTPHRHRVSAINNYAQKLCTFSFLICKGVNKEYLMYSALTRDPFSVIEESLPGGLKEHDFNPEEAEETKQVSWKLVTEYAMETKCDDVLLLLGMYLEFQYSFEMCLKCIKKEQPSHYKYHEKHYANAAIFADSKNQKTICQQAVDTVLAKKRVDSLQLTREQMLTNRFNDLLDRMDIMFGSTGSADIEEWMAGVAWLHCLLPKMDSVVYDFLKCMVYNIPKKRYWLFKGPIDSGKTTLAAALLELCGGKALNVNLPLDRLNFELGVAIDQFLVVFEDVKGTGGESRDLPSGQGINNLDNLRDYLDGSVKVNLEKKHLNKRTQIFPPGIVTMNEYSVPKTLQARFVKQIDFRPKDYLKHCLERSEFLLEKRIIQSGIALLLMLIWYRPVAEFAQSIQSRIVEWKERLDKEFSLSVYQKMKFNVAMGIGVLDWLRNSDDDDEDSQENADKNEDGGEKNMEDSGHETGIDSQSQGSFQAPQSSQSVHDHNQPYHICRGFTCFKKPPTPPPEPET
Assay [4] can be described thus: NIH3T3 cell viability loss – ATP luminescence, mouse fibroblasts, counter-screen, dose response (AID 2010).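 Note: cells exposed to compound for about 90 hours before reading.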 Format: functional, cell-based. (In general: A counterscreen serves to expose hits that act by an unwanted route or on another target.)
A short description of assay [5]: Trypanosoma cruzi growth suppression in host cells – NIH3T3 host cells, beta-gal luminescence, confirmation (AID 2044).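 Note: intracellular parasites grown in NIH/3T3 mouse fibroblasts as host cells; luminescent beta-galactosidase reporter signal from transgenic T. cruzi replicating inside host cells; inhibitors lower the luminescence signal.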 It counts as functional, cell-based.
In the next assay the target is T3, Streptokinase A (Streptococcus pyogenes serotype M1, UniProt P10520).
T3 sequence (P10520 whole entry): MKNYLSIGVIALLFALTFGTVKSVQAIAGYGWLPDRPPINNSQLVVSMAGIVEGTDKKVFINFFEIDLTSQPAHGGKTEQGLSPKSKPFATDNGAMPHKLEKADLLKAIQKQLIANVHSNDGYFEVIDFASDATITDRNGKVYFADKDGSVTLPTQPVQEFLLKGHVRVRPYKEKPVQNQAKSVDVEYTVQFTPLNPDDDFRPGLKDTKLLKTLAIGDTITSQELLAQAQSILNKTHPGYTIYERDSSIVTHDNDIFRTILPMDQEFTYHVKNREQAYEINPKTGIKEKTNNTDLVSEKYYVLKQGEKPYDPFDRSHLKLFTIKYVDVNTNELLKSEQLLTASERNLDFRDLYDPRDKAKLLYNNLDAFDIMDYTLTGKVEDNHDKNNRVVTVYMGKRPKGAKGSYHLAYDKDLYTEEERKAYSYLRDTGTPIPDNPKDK
Put plainly: viability-normalized secreted streptokinase activity reduction – plasminogen activation absorbance, OD405, dose response (AID 1914).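 Note: secreted streptokinase activity via plasminogen activation per viability signal from cell pellet.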 Format: functional, Streptococcus pyogenes M1 GAS.

The next assay deals with Streptococcus. The experiment in a line: GAS UMAA2166 growth inhibition – luminescence, BacTiterGlo, counter-screen for streptokinase expression inhibitor project, dose response (AID 1915).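 Note: potency for reduction of bacterial viability or growth.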 It counts as functional, organism-based.
The test system of assay [6] is Streptococcus sp. 'group A'. The experiment in a line: Streptococcus pyogenes SK(-)GAS viability under kanamycin – luminescence, BacTiterGlo, confirmation, counter-screen for streptokinase expression inhibitor project, dose response (AID 1900). Format: functional, organism-based.
The target in the next assay is T4, Protein skinhead-1 (Caenorhabditis elegans, UniProt P34707).
T4 sequence (P34707 whole entry): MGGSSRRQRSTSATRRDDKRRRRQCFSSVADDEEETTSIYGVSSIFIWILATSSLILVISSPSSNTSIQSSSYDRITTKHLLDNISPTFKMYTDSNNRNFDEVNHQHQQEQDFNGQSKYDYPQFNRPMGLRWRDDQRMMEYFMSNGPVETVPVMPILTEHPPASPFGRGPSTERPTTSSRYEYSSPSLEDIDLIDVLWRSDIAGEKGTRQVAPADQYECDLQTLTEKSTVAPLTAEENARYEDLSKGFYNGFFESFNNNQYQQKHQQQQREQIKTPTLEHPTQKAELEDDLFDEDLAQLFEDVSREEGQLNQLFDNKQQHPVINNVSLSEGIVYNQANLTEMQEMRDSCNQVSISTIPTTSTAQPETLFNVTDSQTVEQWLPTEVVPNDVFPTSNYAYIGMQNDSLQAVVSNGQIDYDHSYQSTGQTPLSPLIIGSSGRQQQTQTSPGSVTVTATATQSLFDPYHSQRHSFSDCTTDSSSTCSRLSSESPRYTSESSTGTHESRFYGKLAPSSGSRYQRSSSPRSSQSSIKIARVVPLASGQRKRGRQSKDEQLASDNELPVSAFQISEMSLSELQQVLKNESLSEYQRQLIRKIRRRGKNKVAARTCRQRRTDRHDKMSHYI
Format: functional.

The nature of assay [7]: viability loss of HPDE-C7K cells – cell-based, fluorescence, HTS, primary screen (AID 431). Format: functional. The settings on record: Homo sapiens.
A short description of assay [8]: HPDE-C7 pancreatic duct cell viability loss – fluorescence, HTS (AID 430). It counts as functional, cell-based. The following applies: Homo sapiens.

Turning to `Cc1ccc2c(c1)c1nnc(SCC(=O)Nc3cccc(Cl)c3C)nc1n2CC(=O)O`, the IC50 on Aminopeptidase N is 8.42 µM (active).

Turning to `CCCSc1nnc(NC(=O)c2nc(SC)ncc2Cl)s1`, the concentration for half-maximal inhibition (IC50) on Aminopeptidase N is 109 µM (active); on Leucine aminopeptidase it was 34.2 µM (active).

As to `Cc1ccc(NC(=O)CN(C)C(=S)NC2CC2)cc1`, the EC50 in [1], in assay [2] and in assay [3] was > 79.4 µM (not active) in each case.

Take `CCc1nnc(NS(=O)(=O)c2ccc(NC(=S)NC(=O)/C=C/c3cccs3)cc2)s1`: the EC50 in assay [1], in [2] and in assay [3] was > 79.4 µM (not active) in each case. Also, the IC50 was 79.4 µM (active) on Aminopeptidase N and 9.13 µM (active) at Leucine aminopeptidase.

Consider `CC1(C)OC2OC(C(=O)N/N=C/c3cc(Br)ccc3O)C3OC(C)(C)OC3C2O1` (centres undefined), for which, at Aminopeptidase N, the IC50 is 51.7 µM (active).

With `OC[C@H]1O[C@@H](Oc2cc(O)cc(/C=C/c3ccc(O)cc3)c2)[C@H](O)[C@@H](O)[C@@H]1O` [PICEID], on Large T antigen, the half-inhibitory concentration (IC50) was 11.2 µM (active).

Consider `O=C(Nc1nc(-c2ccc(S(=O)(=O)N3CCCCCC3)cc2)cs1)c1cccs1`, for which the EC50 in assay [1] was 14.6 µM (not active); in assay [4], 6.61 µM (active); in assay [5] it was 2.33 µM (active); in assay [2] it was 17.4 µM (not active); in assay [3], 16.5 µM (not active).

On to `Cc1csc(NC(=O)COCC(=O)O)c1-c1nc2ccccc2s1`, for which the EC50 is > 150 µM (not active) at Streptokinase A, 22.3 µM (active) in the assay with Streptococcus and 5.48 µM (active) in assay [6]. The half-inhibitory concentration (IC50) at Aminopeptidase N was 17.1 µM (active); at Leucine aminopeptidase, 35.1 µM (active).

For the compound `CCN(CC)CCCCN1c2ccccc2Sc2ccccc21`, the IC50 on Large T antigen was 14.2 µM (active).

Regarding `C=CCN1C(=O)/C(=c2\sc3nc(=O)c(Cc4ccccc4Cl)nn3c2=O)c2ccccc21`, the IC50 at Aminopeptidase N is 57.4 µM (active).

Consider `CCCCCCn1c(N2CCN(c3cccc(Cl)c3)CC2)nc2c1c(=O)[nH]c(=O)n2C`, for which, on Protein skinhead-1, the IC50 was > 100 µM (inactive). Besides, the EC50 in assay [7] and in assay [8] was > 20 µM (not active) in each case.

With `O=C(CSc1ncnc2c1nnn2-c1ccc(F)cc1)NCc1ccco1`, the EC50 in [1], in [2] and in [3] was > 79.4 µM (not active) each time.

In the case of `O=C(CCC1CCCN(C(=O)C2=CCCCC2)C1)N1CCN(c2ccccn2)CC1` (centres undefined), the concentration giving a half-maximal response (EC50) in assay [1], in [2] and in assay [3] was > 79.4 µM (not active) throughout.

A word on the IC50: it is the concentration needed to halve the response being measured. What is called EC50 is the concentration giving half of the maximal effect.
